Measurements reported in US11141368B2, “Cosmetic composition, cosmetic treatment method, kit, and compound” (L'OREAL, priority 2010, dated 2021).

Assays:
[1] = Improvement of hair straightening: leave-in post-treatment of alkaline-straightened hair, visual observation; conditions: 5% by weight in distilled water
Description: Applied to hair (originally curly hair of curliness IV) straightened by an alkaline hair-straightening product (Goldys—2% active sodium hydroxide) is the following composition, with an amount of product/amount of hair ratio (g/g) of 2, without rinsing: • 5% by weight of compound (2) from Example 2 • qs for 100% distilled water
Observations are made at T0.
The locks are then washed once or 5 times using Ultra Mild shampoo (Garnier), then dried. Observations are made at T1 (after 1 shampoo wash) and at T5 (after 5 shampoo washes).
The control locks are treated with a composition comprising 100% distilled water.

[2] = Porosity measurement of the locks of hair using a fluorescent probe; conditions: after 5 shampoo washes, 5% by weight in distilled water

Cc1cc(=O)nc(NC(=O)NCCCN(C)C)[nH]1 [Compound 2, N-[3-(dimethylamino)propyl]-N′-(6-methyl-4-oxo-1,4-dihydropyrimidin-2-yl)urea]
hair-straightening efficiency compared to control post-treatment (distilled water) ([1]; T0, product/hair ratio 2 g/g, no rinsing, hair straightened with 2% sodium hydroxide product): improved | persistence of the improvement in hair-straightening efficiency after shampoo washes ([1]; T1 (after 1 shampoo wash) and T5 (after 5 shampoo washes)): persists | internal porosity of the hair versus control hair [2]: equivalent porosity
